In series [1] the test system is rat oligodendrocyte progenitor cells. The series can be described thus: Promotive activity of rat oligodendrocyte progenitor cell differentiation-1 (MBP gene expression, mRNA). Format: cell-based. As to conditions: Rattus norvegicus, Oligodendrocyte progenitor cell, 96 h, read-out: promotive activity at T3 base (MBP gene expression; DMSO 0%, T3 100%), 4 days, MBP/β actin mRNA. The protocol:
Regarding vitamin D derivatives, which was confirmed to act on the vitamin D receptor (VDR) in Example 352, the promotive activity of oligodendrocyte progenitor cell (OPC) differentiation was evaluated by MBP gene expression (mRNA).
A forebrain obtained from SD rat (Charles River Japan, 1 day old) was crushed with 70 μm Cell Strainer (Falcon #352350), and a cell suspension was prepared by collecting the cells in oligodendrocyte progenitor cell separation medium (20% FBS/2 mM Glutamax (Gibco #35050-061)/i mM sodium pyruvate (Gibco #11360-070)/1% penicillin-streptomycin (Invitrogen #15140-122)/DMEM (Gibco #11960-044)). The cell suspension was seeded in a poly-D-lysine coated T75 flask (Thermo Fisher Scientific #132704) and cultured for about 2 weeks. After culturing, the flask was shaken using a rotary shaker ([…] #WB-101SRC) for about 1 hour (37° C., 100 rpm), and the supernatant was discarded to remove microglia. Subsequently, oligodendrocyte progenitor cell separation medium was added to the flask, and the mixture was similarly shaken for about 22 hours (37° C., 200 rpm), and the supernatant was collected to prepare oligodendrocyte progenitor cells.
The oligodendrocyte progenitor cell prepared was suspended in a differentiation medium (2% B27 (Thermo Fisher Scientific, Inc. #17504-044)/1% penicillin-streptomycin (Invitrogen Corporation #15140-122)/10 ng/mL CNTF (PeproTech Inc. #AF-450-13)/DMEM (Gibco #11960-044)), and seeded on a 96-well plate coated with poly-L-ornithine (FUJIFILM Wako Pure Chemical Corporation #163-27421) under the condition of 0.65×10^4 cells/well, and on a 384-well plate under the condition of 2×10^3 cells/well using an automatic dispensing system (LABCYTE #Echo555). […] After culturing, the cells seeded on the 96-well plate were subjected to immunostaining against MBP using following methods: fixation (4% paraformaldehyde solution, 30 minutes, room temperature), PBS washing, membrane permeation treatment (0.1% Trion X-100 (SIGMA #X100-100ML)/PBS, 3 minutes, room temperature), blocking (3% BSA (SIGMA #A9647-10G)/PBS, 1 hour, room temperature), primary antibody reaction (MBP antibody (abcam plc #ab40390), 2.5 μg/mL, 4° C., 24 hours), PBS washing, secondary antibody reaction (Alexa488 anti-rabbit IgG (Thermo Fisher Scientific, Inc. #A-11034), 5 μg/mL, room temperature, 1 hour), PBS washing, and nuclear staining (Hoechst33342 (DOJINDO #NU043), 10 μg/mL, room temperature, 5 minutes). Subsequently, images of each well were acquired using a fluorescence microscope (KEYENCE CORPORATION #BZ-X800), the number of MBP-positive cells and Hoechst 33342-positive cells were measured using an image analysis application (KEYENCE CORPORATION #BZ-X800 Analyzer), and then the ratio (the number of MBP-positive cells/the number of Hoechst33342-positive cells) was calculated. The cells seeded on the 384-well plate were subjected to real-time PCR using Cells-to-CT 1-Step TaqMan Kit (Thermo Fisher Scientific, Inc. #A25602) and QuantStudio 12K Flex Real-Time PCR System (Thermo Fisher Scientific, Inc. #4472380). The experiment was performed in accordance with the protocol attached to the kit. MBP (Thermo Fisher Scientific, Inc. #Assay ID Rn00690616_ml) and β actin (Thermo Fisher Scientific, Inc. #Assay ID Rn00667869_ml) were used as primers, and the expression levels of each were measured and the ratio (MBP/β actin) was calculated.

For series [2] the test system is unchanged. The series can be described thus: Promotive activity of rat oligodendrocyte progenitor cell differentiation-2 (immunostaining of MBP). Format: cell-based. As to conditions: vitamin D derivative 2 μM, T3 30 nM, 4 days. In a few lines:
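Vitamin D derivatives scored as symbols for promoting differentiation, read out by MBP immunostaining. OPCs taken from supernatant after about 22 h shaking (37 °C, 200 rpm) in separation medium.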

Series [3] can be described thus: Evaluation of brain penetration in mice (blood and brain concentration at brain Cmax). Format: in vivo, mouse. The conditions noted are these: 1 mg/kg single oral dose, C57BL/6J mice; for Concentration in blood (mean ± SD) at brain Cmax / Concentration in brain (mean ± SD) at brain Cmax: n=3; for Kp: male, mouse, brain/plasma, read-out: Concentration in brain/in blood ratio at brain Cmax. The protocol: The administration solution was administered orally to C57BL/6J mice (8 weeks old, male, n=3) at a single dose (1 mg/kg). Mice were euthanized at 6 points of 0.25, 0.5, 1, 2, 4, and 8 hours after administration, and plasma and brain sampling were performed. After preparing a homogenate from the collected brain using Tissue Lyser II (QIAGEN #85300), acetonitrile was added to the homogenate and the homogenate was centrifuged (12000 rpm, 5 minutes) to extract the administered test compound contained in the brain. Similarly, the plasma was subjected to addition of acetonitrile and centrifugal separation to extract the administered test compound contained in the plasma. Each extracted sample was subjected to measurement of the concentration of administered test compound using LC/MS/MS (SHIMADZU UFLC/MS/MS (8050)).
Test 2 [0.2 mg/kg Administration Study] […] The administration solution was administered orally to C57BL/6J mice (8 weeks old, male, n=3) at a single dose (0.2 mg/kg). Mice were euthanized at 6 points of 0.25, 0.5, 1, 2, 4, and 8 hours after administration, and plasma and brain sampling were performed. After preparing a homogenate from the collected brain using Tissue Lyser II (QIAGEN #85300), acetonitrile was added to the homogenate and the homogenate was centrifuged (12000 rpm, 5 minutes) to extract the administered compound contained in the brain. Similarly, the plasma was subjected to addition of acetonitrile and centrifugal separation to extract the administered test compound contained in the plasma. Each extracted sample was subjected to measurement of the concentration of administered test compound using LC/MS/MS (SHIMADZU UFLC/MS/MS (8050)).

The target of the next series is T1, human VDR (Homo sapiens, UniProt P11473).
T1 sequence (P11473 1-427): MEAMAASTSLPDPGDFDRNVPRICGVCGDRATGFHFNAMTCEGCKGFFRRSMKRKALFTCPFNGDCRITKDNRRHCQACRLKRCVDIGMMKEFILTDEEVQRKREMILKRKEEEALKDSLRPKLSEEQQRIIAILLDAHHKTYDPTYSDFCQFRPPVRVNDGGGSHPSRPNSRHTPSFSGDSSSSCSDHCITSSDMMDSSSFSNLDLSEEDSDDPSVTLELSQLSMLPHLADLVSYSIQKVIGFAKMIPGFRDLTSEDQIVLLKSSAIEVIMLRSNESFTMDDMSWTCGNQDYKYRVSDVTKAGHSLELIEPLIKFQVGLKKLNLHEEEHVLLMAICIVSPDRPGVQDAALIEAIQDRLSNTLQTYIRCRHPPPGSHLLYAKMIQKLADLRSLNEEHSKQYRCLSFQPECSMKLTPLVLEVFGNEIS
T1 sequence (P19793 1-462 partner): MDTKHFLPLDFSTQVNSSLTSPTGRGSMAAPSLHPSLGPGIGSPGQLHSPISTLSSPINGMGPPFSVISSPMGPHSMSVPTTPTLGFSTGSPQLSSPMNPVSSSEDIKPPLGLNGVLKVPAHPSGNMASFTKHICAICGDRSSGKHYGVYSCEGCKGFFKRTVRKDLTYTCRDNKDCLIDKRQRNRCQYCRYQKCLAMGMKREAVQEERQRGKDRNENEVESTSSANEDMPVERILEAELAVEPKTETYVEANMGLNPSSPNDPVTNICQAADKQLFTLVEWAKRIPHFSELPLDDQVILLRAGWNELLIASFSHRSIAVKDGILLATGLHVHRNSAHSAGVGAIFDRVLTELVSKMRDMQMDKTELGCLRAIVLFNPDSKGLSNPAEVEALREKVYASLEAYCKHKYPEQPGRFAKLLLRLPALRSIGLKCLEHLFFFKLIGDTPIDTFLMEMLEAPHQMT
Description: Evaluation of VDR transcription activity in human osteoblasts (HOS cells), luciferase reporter. As to conditions: Activity (EC50, VDR transcription activity), HOS cells transfected with human VDR, human RXRα and DR3 luciferase reporter; 21 hours. (In general: In a reporter assay the amount or activity of a reporter protein is the signal.)

Broadly, the pEC50 is the EC50 on a negative log10 scale, so that one unit is a factor of ten. Higher therefore signals a low EC50.

The structures appear in SMILES notation. pEC50: −log10 of the molar value. Where two headings read alike, the source gives them in different places. Bounds are passed on as bounds.

As to `C=C1/C(=C\C=C2/CCC[C@]3(C)[C@@H]([C@H](C)CCN4CCO[C@H](C)C4)CC[C@@H]23)C[C@@H](O)CC1O` (stereo in doubt) [Compound D047, (1R,3R,Z)-5-(2-((1R,3aS,7aR,E)-7a-methyl-1-((R)-4-((R)-2-methylmorpholino)butan-2-yl)octahydro-4H-inden-4-ylidene)ethylidene)-4-methylenecyclohexane-1,3-diol], in series [1], the activation at 1 µM is ≥ 20%.
For the compound `C=C1/C(=C\C=C2/CCC[C@]3(C)[C@@H]([C@H](C)CCN4CCO[C@@H](C)C4)CC[C@@H]23)C[C@@H](O)CC1O` (stereo in doubt) [Compound D048, (1R,3R,Z)-5-(2-((1R,3aS,7aR,E)-7a-methyl-1-((R)-4-((S)-2-methylmorpholino)butan-2-yl)octahydro-4H-inden-4-ylidene)ethylidene)-4-methylenecyclohexane-1,3-diol], the activation at 1 µM in series [1] is ≥ 20%.
As for `C[C@H](CN1CC[C@H](CC(F)F)C1)[C@H]1CC[C@H]2/C(=C/C=C3C[C@@H](O)C[C@H](O)C3)CCC[C@]12C` [Compound B042, (1R,3R)-5-(2-((1R,3aS,7aR,E)-1-((S)-1-((R)-3-(2,2-difluoroethyl)pyrrolidin-1-yl)propan-2-yl)-7a-methyloctahydro-4H-inden-4-ylidene)ethylidene)cyclohexane-1,3-diol], the “Mean (number of MBP-positive cells/number of Hoechst33342-positive cells)” value in series [2] (Test 1) is listed as 0.62; in series [2] (Test 2), 0.53. Further, the “Concentration in blood (mean ± SD) at brain Cmax” value in series [3] is 79 ± 7 nM. For the same compound, the “Concentration in brain (mean ± SD) at brain Cmax” value in series [3] was found to be 60 ± 5 pmol/g. The Kp in series [3] (C57BL/6J, po, 1 mg/kg) came out at 0.75. The pEC50 at human VDR is 7.00 to 8.00.
`C[C@H](CN1CC[C@H](OCC(F)F)C1)[C@H]1CC[C@H]2/C(=C/C=C3C[C@@H](O)C[C@H](O)C3)CCC[C@]12C` [Compound B057, (1R,3R)-5-(2-((1R,3aS,7aR,E)-1-((S)-1-((S)-3-(2,2-difluoroethoxy)pyrrolidin-1-yl)propan-2-yl)-7a-methyloctahydro-4H-inden-4-ylidene)ethylidene)cyclohexane-1,3-diol]: in series [2] (Test 2), the “Mean (number of MBP-positive cells/number of Hoechst33342-positive cells)” value was determined as 0.57. Also, in series [3], the “Concentration in blood (mean ± SD) at brain Cmax” value is reported as 271 ± 16 nM and the “Concentration in brain (mean ± SD) at brain Cmax” value was found to be 141 ± 8 pmol/g. In addition, the Kp in series [3] (C57BL/6J, po, 1 mg/kg) turned out to be 0.52. Also, the pEC50 at human VDR is 6.00 to 7.00.
On the same counts, the results for `C[C@H](CN1CC[C@@H](CCC(F)F)C1)[C@H]1CC[C@H]2/C(=C/C=C3C[C@@H](O)C[C@H](O)C3)CCC[C@]12C` [Compound B064, (1R,3R)-5-(2-((1R,3aS,7aR,E)-1-((S)-1-((R)-3-(3,3-difluoropropyl)pyrrolidin-1-yl)propan-2-yl)-7a-methyloctahydro-4H-inden-4-ylidene)ethylidene)cyclohexane-1,3-diol] are 0.61, 72 ± 11 nM, 38 ± 12 pmol/g, 0.53 and 6.00 to 7.00.
On the same counts, the results for `C=C1[C@H](O)CC(=C/C=C2\CCC[C@]3(C)[C@@H]([C@H](C)CN4CCC(C(C)(F)F)CC4)CC[C@@H]23)C[C@H]1O` [Compound C055, (1R,3R)-5-(2-((1R,3aS,7aR,E)-1-((S)-1-(4-(1,1-difluoroethyl)piperidin-1-yl)propan-2-yl)-7a-methyloctahydro-4H-inden-4-ylidene)ethylidene)-2-methylenecyclohexane-1,3-diol] are 0.48, 190 ± 23 nM, 338 ± 36 pmol/g, 1.78 and 7.00 to 8.00.
Consider `C[C@H](CN1CCOC2(CC2)C1)[C@H]1CC[C@H]2/C(=C/C=C3C[C@@H](O)C[C@H](O)C3)CCC[C@]12C` [Compound D019, (1R,3R)-5-(2-((1R,3aS,7aR,E)-1-((S)-1-(4-oxa-7-azaspiro[2.5]octan-7-yl)propan-2-yl)-7a-methyloctahydro-4H-inden-4-ylidene)ethylidene)cyclohexane-1,3-diol], for which, in series [2] (Test 2), the “Mean (number of MBP-positive cells/number of Hoechst33342-positive cells)” value amounted to 0.57. Also, in series [3], the “Concentration in blood (mean ± SD) at brain Cmax” value was 280 ± 53 nM, the “Concentration in brain (mean ± SD) at brain Cmax” value stood at 811 ± 163 pmol/g and the Kp stood at 2.89. At human VDR, the pEC50 was 7.00 to 8.00.

For the origin of these results see patent publication US20230348376A1 (TEIJIN PHARMA LIMITED, priority 2020, published 2023).
